Here are results for 15 molecules from patent US20240000736A1, “INHIBITION OF PROTEIN AMYLOID AGGREGATION USING FLUORINATED BENZENESULFONAMIDES” (Vilnius University, priority 2022, published 2024).

`NS(=O)(=O)c1c(F)c(F)c(Sc2cccc(C(=O)O)c2)c(F)c1NC1CCCCCCCCCCC1` [MZ22-07, 3-[3-(Cyclododecylamino)-2,5,6-trifluoro-4-sulfamoyl-phenyl]sulfanylbenzoic acid] gave a melting point of 123 to 125 °C.
The value for `NS(=O)(=O)c1c(F)c(F)c(SCCc2ccc(C(=O)O)cc2)c(F)c1NC1CCCCCCC1` [VR16-10, 4-[2-[3-(Cyclooctylamino)-2,5,6-trifluoro-4-sulfamoyl-phenyl]sulfanylethyl]benzoic acid] was 166 to 168 °C.
As for `NS(=O)(=O)c1c(F)c(F)c(Sc2ccccc2C(=O)O)c(F)c1NC1CCCCCCCCCCC1` [MZ22-10, 2-[3-(Cyclododecylamino)-2,5,6-trifluoro-4-sulfamoyl-phenyl]sulfanylbenzoic acid], the melting point turned out to be 85 °C.
On to `NS(=O)(=O)c1c(F)c(F)c(Sc2ccc(CC(=O)O)cc2)c(F)c1NC1CCCCCCCCCCC1` [MZ21-18, 2-[4-(3-(Cyclododecylamino)-2,5,6-trifluoro-4-sulfamoylphenyl)sulfanylphenyl]acetic acid], for which the melting point lay within 148 to 150 °C.
The molecule `NS(=O)(=O)c1c(F)c(F)c(Sc2ccc(C(=O)O)cc2)c(F)c1NC1CCCCCCCCCCC1` [MZ21-02, 4-[3-(Cyclododecylamino)-2,5,6-trifluoro-4-sulfamoyl-phenyl]sulfanylbenzoic acid] returned a melting point of 186 to 188 °C.
The value for `CCCCCCCNc1c(F)c(SCCc2ccc(C(=O)O)cc2)c(F)c(F)c1S(N)(=O)=O` [MZ21-11, 4-[2-[2,3,6-Trifluoro-5-(heptylamino)-4-sulfamoyl-phenyl]sulfanylethyl]benzoic acid] was 66 to 68 °C; that for `CCCC(CCC)CCNc1c(F)c(SCc2ccc(C(=O)O)cc2)c(F)c(F)c1S(N)(=O)=O` [MZ21-35, 4-[[2,3,6-Trifluoro-5-(3-propylhexylamino)-4-sulfamoyl-phenyl]sulfanylmethyl]benzoic acid] was 149 °C.
The value for `NS(=O)(=O)c1c(F)c(F)c(SCc2ccc(C(=O)O)cc2)c(F)c1NCC1CCCCCCC1` [MZ21-23, 4-[[3-(Cyclooctylmethylamino)-2,5,6-trifluoro-4-sulfamoyl-phenyl]sulfanylmethyl]benzoic acid] was 157 to 158 °C; that for `NS(=O)(=O)c1c(F)c(F)c(SCc2cccc(C(=O)O)c2)c(F)c1NC1CCCCCCCCCCC1` [MZ21-26, 3-[[3-(Cyclododecylamino)-2,5,6-trifluoro-4-sulfamoyl-phenyl]sulfanylmethyl]benzoic acid] was 109 to 111 °C.
The molecule `CCC(C)C(C)CCNc1c(F)c(SCc2ccc(C(=O)O)cc2)c(F)c(F)c1S(N)(=O)=O` (stereo not drawn) [MZ21-40, 4-[[3-(3,4-Dimethylhexylamino)-2,5,6-trifluoro-4-sulfamoyl-phenyl]sulfanylmethyl]benzoic acid] had a melting point of 133 °C.
`NS(=O)(=O)c1c(F)c(F)c(SCc2ccc(C(=O)O)cc2)c(F)c1NC1CCCCCCCCC1` [MZ21-25, 4-[[3-(Cyclodecylamino)-2,5,6-trifluoro-4-sulfamoyl-phenyl]sulfanylmethyl]benzoic acid]: the melting point was found to be 176 °C.
As for `CCCCCCCCNc1c(F)c(SCCc2ccc(C(=O)O)cc2)c(F)c(F)c1S(N)(=O)=O` [MZ20-07, 4-[2-[2,3,6-Trifluoro-5-(octylamino)-4-sulfamoyl-phenyl]sulfanylethyl]benzoic acid], the figure is 69 to 71 °C.
As for `NS(=O)(=O)c1c(F)c(F)c(SCc2ccc(C(=O)O)cc2)c(F)c1NC1CCCCCCCCCCC1` [MZ21-10, 4-[[3-(Cyclododecylamino)-2,5,6-trifluoro-4-sulfamoyl-phenyl]sulfanylmethyl]benzoic acid], the figure is 190 to 191 °C.
As for `CCCCCCCCCNc1c(F)c(SCCc2ccc(C(=O)O)cc2)c(F)c(F)c1S(N)(=O)=O` [MZ21-12, 4-[2-[2,3,6-Trifluoro-5-(nonylamino)-4-sulfamoyl-phenyl]sulfanylethyl]benzoic acid], the figure is 66 to 67 °C; as for `CCCCCCNc1c(F)c(SCCc2ccc(C(=O)O)cc2)c(F)c(F)c1S(N)(=O)=O` [MZ21-06, 4-[2-[2,3,6-Trifluoro-5-(hexylamino)-4-sulfamoyl-phenyl]sulfanylethyl]benzoic acid], 110 to 112 °C.

For orientation: melting point means the temperature of the solid-liquid transition.
